From ChEMBL document CHEMBL4229448 (Bioorg Med Chem Lett, 2018)
The source made the active and inactive calls. The rule behind the calls is not given here.

Columns and labels:
SH-SY5Y = assay: Cytotoxicity against human SH-SY5Y cells assessed as decrease in cell viability after 48 hrs by MTT assay; format: cell-based
Cholinesterase [1] = biological target: T1, Cholinesterase (Equus caballus, UniProt P81908); assay: Inhibition of horse serum BuChE using acetylthiocholine as substrate by UV-visible spectrophotometric Ellman's method
Cholinesterase [2] = biological target: T1, Cholinesterase
Description: Inhibition of horse serum BuChE using acetylthiocholine as substrate after 60 mins by FRET assay

[3] = Half life in rat liver microsomes; format: ADME, microsome
[4] = biological target: Cholinesterase (Equus caballus) (UniProt P81908); assay: Inhibition of horse serum BuChE at 0.1 uM using acetylthiocholine as substrate by UV-visible spectrophotometric Ellman's method
Acetylcholinesterase [5] = biological target: T2, Acetylcholinesterase (Homo sapiens, UniProt P22303); assay: Inhibition of human recombinant AChE using acetylthiocholine as substrate by UV-visible spectrophotometric Ellman's method
[6] = Metabolic stability in human plasma assessed as compound remaining measured after 120 mins; format: ADME, cell-free; conditions: read-out: Stability
Acetylcholinesterase [7] = biological target: T2, Acetylcholinesterase; assay: Inhibition of human recombinant AChE at 0.05 uM using acetylthiocholine as substrate by UV-visible spectrophotometric Ellman's method
[8] = Effective permeability of the compound at 100 ug/ml after 16 hrs by PAMPA
[9] = Half life in pH 6.5 fasted state simulated intestinal fluid; format: ADME

T2 sequence (P22303 whole entry): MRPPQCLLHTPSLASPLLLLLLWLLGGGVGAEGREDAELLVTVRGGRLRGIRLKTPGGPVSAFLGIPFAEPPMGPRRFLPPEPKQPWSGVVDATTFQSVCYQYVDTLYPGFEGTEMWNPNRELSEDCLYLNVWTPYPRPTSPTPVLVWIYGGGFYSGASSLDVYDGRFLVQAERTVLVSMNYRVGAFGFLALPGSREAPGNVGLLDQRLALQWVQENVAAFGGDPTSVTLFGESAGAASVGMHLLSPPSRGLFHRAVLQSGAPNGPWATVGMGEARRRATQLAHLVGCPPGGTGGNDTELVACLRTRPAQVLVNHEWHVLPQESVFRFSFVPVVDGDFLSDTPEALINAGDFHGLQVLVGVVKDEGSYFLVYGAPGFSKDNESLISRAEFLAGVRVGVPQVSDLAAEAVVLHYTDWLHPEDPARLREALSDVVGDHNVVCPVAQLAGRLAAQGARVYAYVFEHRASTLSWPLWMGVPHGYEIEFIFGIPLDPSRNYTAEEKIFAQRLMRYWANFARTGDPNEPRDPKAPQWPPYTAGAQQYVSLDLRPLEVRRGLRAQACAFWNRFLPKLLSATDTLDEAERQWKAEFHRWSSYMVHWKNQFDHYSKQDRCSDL
T1 sequence (P81908 whole entry): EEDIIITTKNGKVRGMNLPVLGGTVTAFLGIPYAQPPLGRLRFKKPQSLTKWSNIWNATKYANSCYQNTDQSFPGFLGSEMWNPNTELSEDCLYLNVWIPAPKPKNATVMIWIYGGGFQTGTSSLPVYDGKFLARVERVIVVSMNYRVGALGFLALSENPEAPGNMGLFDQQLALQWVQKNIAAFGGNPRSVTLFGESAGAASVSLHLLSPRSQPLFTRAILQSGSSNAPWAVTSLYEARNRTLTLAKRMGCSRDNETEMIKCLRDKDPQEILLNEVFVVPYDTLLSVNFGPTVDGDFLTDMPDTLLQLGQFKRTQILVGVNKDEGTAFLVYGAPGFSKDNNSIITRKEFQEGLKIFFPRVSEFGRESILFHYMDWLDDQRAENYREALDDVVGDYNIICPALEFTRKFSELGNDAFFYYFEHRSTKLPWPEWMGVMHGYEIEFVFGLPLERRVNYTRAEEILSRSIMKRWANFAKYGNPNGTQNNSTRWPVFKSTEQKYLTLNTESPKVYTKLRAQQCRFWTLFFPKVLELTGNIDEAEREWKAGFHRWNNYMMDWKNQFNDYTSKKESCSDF
Chain of Cholinesterase (Equus caballus) (P81908 whole entry): as above

In the case of `COc1ccc2c(c1)C/C(=C/c1ccccc1-c1ccccc1)C2=O`, the IC50 (SH-SY5Y) is reported as over 50 µM, the IC50 (Cholinesterase [1]) is reported as 0.125 µM and the IC50 (Cholinesterase [2]) is reported as 3.31 µM. For the same compound, the half-life [3] was 4.05 h, the inhibition [4] was “Active” and the IC50 (Acetylcholinesterase [5]) was 0.0298 µM. For the same compound, the remaining at 2 h [6] was 98.6%, the inhibition (Acetylcholinesterase [7]) was “Active” and the Papp at 16 h, 100 ug/ml [8] was 26.6 ×10⁻⁶ cm/s. It also gave a half-life [9] of 9.85 h.
Compound `COc1ccc2c(c1)C/C(=C/c1ccccc1-c1ccc3nc(N)ccc3c1)C2=O` has an IC50 (SH-SY5Y) of over 50 µM, an IC50 (Cholinesterase [1]) of 0.0131 µM and an IC50 (Cholinesterase [2]) of 1.78 µM. The half-life [3] was 3.78 h, the inhibition [4] was “Active” and the IC50 (Acetylcholinesterase [5]) was 0.0147 µM. The remaining at 2 h [6] was 96.1%, the inhibition (Acetylcholinesterase [7]) was “Active” and the Papp at 16 h, 100 ug/ml [8] was 24.3 ×10⁻⁶ cm/s. It also gave a half-life [9] of 9.63 h.
Compound `CC(C)[N+](C)(CCOC(=O)C1c2ccccc2Oc2ccccc21)C(C)C` [PROPANTHELINE] has a remaining at 2 h [6] of 2.83%.
With `C[C@@H](NC(=O)c1cc(C(=O)N[C@@H](Cc2ccccc2)[C@H](O)CNC2CC2)cc(N(C)S(C)(=O)=O)c1)c1ccccc1` the IC50 (Cholinesterase [1]) was 0.0146 µM.
`COc1ccc2c(c1)C/C(=C/c1ccccc1-c1ccc3ccccc3c1)C2=O` showed an IC50 (SH-SY5Y) of over 50 µM, an IC50 (Cholinesterase [1]) of 0.101 µM and an IC50 (Cholinesterase [2]) of 3.97 µM. For the same compound, the half-life [3] was 4.65 h, the inhibition [4] was “Active” and the IC50 (Acetylcholinesterase [5]) was 0.0324 µM. The remaining at 2 h [6] was 99.2%, the inhibition (Acetylcholinesterase [7]) was “Active” and the Papp at 16 h, 100 ug/ml [8] was 28.5 ×10⁻⁶ cm/s. For the same compound, the half-life [9] was 10.2 h.
With `COc1ccc2c(c1)C/C(=C/C1CCN(Cc3ccccc3)CC1)C2=O` the IC50 (Cholinesterase [1]) was 0.341 µM, the inhibition [4] was “Active” and the IC50 (Acetylcholinesterase [5]) was 0.0441 µM.
For `COc1ccc(-c2ccccc2/C=C2/Cc3cc(OC)ccc3C2=O)cc1`, the IC50 (SH-SY5Y) was over 50 µM, the IC50 (Cholinesterase [1]) was 0.0994 µM and the IC50 (Cholinesterase [2]) was 2.15 µM. The half-life [3] was 3.58 h, the inhibition [4] was “Active” and the IC50 (Acetylcholinesterase [5]) was 0.0212 µM. For the same compound, the remaining at 2 h [6] was 97.5%, the inhibition (Acetylcholinesterase [7]) was “Active” and the Papp at 16 h, 100 ug/ml [8] was 26.2 ×10⁻⁶ cm/s. The half-life [9] was 8.57 h.
`CC[C@H]1OC(=O)[C@H](C)[C@@H](O[C@H]2C[C@@](C)(OC)[C@@H](O)[C@H](C)O2)[C@H](C)[C@@H](O[C@@H]2O[C@H](C)C[C@H](N(C)C)[C@H]2O)[C@](C)(O)C[C@@H](C)C(=O)[C@H](C)[C@@H](O)[C@]1(C)O` [ERYTHROMYCIN] gave a half-life [9] of 8.25 h.
